{"source": "paper PMC4932617", "about": "(Meta Gene, 2016)", "key": {"intra-gastric pH": {"tested_on": "intra-gastric pH", "assay": "Intra-gastric pH monitoring", "assay_type": "in vivo, human", "conditions": "for pH on Day 6: n=1; for Difference in intra-gastric pH between baseline and day 6: rapid and ultra-rapid metabolizers (CYP2C19*17 carriers)"}, "[1]": {"conditions": "higher in poor than in extensive metabolizers; ref Klotz, 2006; cited from earlier work"}}, "data": [{"smiles": "COc1ccc2nc([S@@+]([O-])Cc3ncc(C)c(OC)c3C)[nH]c2c1", "note": "[Esomeprazole]", "values": [{"measurement": "pH on Day 6", "setting": "intra-gastric pH; normal metabolizer, esomeprazole 40 mg/day for 5 days, baseline pH 0.40", "result": 3.40}, {"measurement": "Difference in intra-gastric pH between baseline and day 6", "setting": "intra-gastric pH; 40 mg/day for 5 days", "result": "noteworthy differences could not be observed"}, {"measurement": "pH on Day 6", "setting": "intra-gastric pH; rapid metabolizer, esomeprazole 40 mg/day for 5 days, baseline pH 1.25", "result": 1.20}]}, {"smiles": "COCCCOc1ccnc(C[S+]([O-])c2nc3ccccc3[nH]2)c1C", "note": "(stereo not drawn) [rabeprazole]", "values": [{"measurement": "AUC in poor metabolizers relative to extensive metabolizers", "setting": "[1]", "result": 4, "unit": "fold"}]}, {"smiles": "COc1ccc2[nH]c([S+]([O-])Cc3ncc(C)c(OC)c3C)nc2c1", "note": "(stereo not drawn) [omeprazole]", "values": [{"measurement": "AUC in poor metabolizers relative to extensive metabolizers", "setting": "[1]", "result": 7.5, "unit": "fold"}]}, {"smiles": "Cc1c(OCC(F)(F)F)ccnc1C[S+]([O-])c1nc2ccccc2[nH]1", "note": "(stereo not drawn) [lansoprazole]", "values": [{"measurement": "AUC in poor metabolizers relative to extensive metabolizers", "setting": "[1]", "result": 4.5, "unit": "fold"}]}, {"smiles": "COc1ccnc(C[S+]([O-])c2nc3ccc(OC(F)F)cc3[nH]2)c1OC", "note": "(stereo not drawn) [Pantoprazole]", "values": [{"measurement": "pH on Day 6", "setting": "intra-gastric pH; normal metabolizer, pantoprazole 40 mg/day for 5 days, baseline pH 1.50", "result": 4.10}, {"measurement": "Gastric acid suppression compared to esomeprazole", "setting": "intra-gastric pH; poor and intermediate metabolizers, 40 mg/day for 5 days", "result": "improved gastric acid suppression"}, {"measurement": "Difference in intra-gastric pH between baseline and day 6", "setting": "intra-gastric pH; 40 mg/day for 5 days", "result": "noteworthy differences could not be observed"}]}]}
